The values below come from patent publication US12091402B2 (Avilar Therapeutics, Inc., priority 2021, dated 2024).

One assay addresses IgG. Put plainly: Affinity to IgG by surface plasmon resonance (SPR). In kind it is binding. The procedure: Immobilization levels ranging from 1000-1300 resonance units (RU) are obtained. The running buffer is 10 mM HEPES, pH 7.4, 400 mM NaCl, 0.005% P20, […].
For orientation: Surface plasmon resonance follows binding to a sensor surface in real time, without labels.

The target of the next assay is T1, ASGPR (Homo sapiens, UniProt P07306).
T1 sequence (P07306 1-291): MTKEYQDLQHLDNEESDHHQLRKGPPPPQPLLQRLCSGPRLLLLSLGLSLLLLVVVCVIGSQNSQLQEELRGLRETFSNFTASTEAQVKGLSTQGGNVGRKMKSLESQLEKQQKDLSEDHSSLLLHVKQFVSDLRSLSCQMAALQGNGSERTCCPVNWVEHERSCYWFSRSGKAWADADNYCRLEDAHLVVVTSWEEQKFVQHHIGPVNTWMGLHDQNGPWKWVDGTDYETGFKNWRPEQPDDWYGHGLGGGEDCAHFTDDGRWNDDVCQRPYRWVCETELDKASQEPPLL
The assay can be described thus: Affinity to ASGPR by surface plasmon resonance (SPR).

Setting [1] is: Biacore 8K, 25° C., IgG on CM5 chip, read-out: IgG SPR Binding Kd.

A word on the Kd: it is the equilibrium constant for the complex coming apart.

Where two headings read alike, the source gives them in different places. Where a SMILES comes first, the peptide text is derived from it. Bridges are numbered along the chain shown (N, C = ends). [ ]: non-standard residue; d: D form. Pro(4S-NH2) = N[C@@H]1CN[C@H](C(=O)O)C1

In the case of `CC(C)C[C@@H]1NC(=O)[C@H](Cc2cnc[nH]2)NC(=O)[C@H](Cc2c[nH]c3ccccc23)NC(=O)[C@H](C)NC(=O)[C@@H]2CSSC[C@H](NC(=O)[C@H](Cc3c[nH]c4ccccc34)NC(=O)[C@H](C(C)C)NC(=O)[C@H](CC(C)C)NC(=O)[C@H](CCC(=O)O)NC(=O)CNC1=O)C(=O)N[C@@H]([C@@H](C)O)C(=O)N1CCC[C@@H]1C(=O)N1C[C@@H](NC(=O)CCCc3cn(C[C@H]4OC[C@H](Nc5nccc(C(F)(F)F)n5)[C@@H](O)[C@H]4O)nn3)C[C@H]1C(=O)N[C@@H](CC(=O)O)C(=O)N2` [Compound 80], the Kd is < 0.1 µM at IgG (SPR, read-out: IgG KD) and > 1 µM at ASGPR.

Regarding `CC(C)C[C@@H]1NC(=O)[C@H](Cc2cnc[nH]2)NC(=O)[C@H](Cc2c[nH]c3ccccc23)NC(=O)[C@H](C)NC(=O)[C@@H]2CSSC[C@H](NC(=O)[C@H](Cc3c[nH]c4ccccc34)NC(=O)[C@H](C(C)C)NC(=O)[C@H](CC(C)C)NC(=O)[C@H](CCC(=O)O)NC(=O)CNC1=O)C(=O)N[C@@H]([C@@H](C)O)C(=O)N1CCC[C@@H]1C(=O)N1C[C@@H](N)C[C@H]1C(=O)N[C@@H](CC(=O)O)C(=O)N2` [Intermediate 5], on IgG (setting [1]), the Kd is < 0.1 µM.

As for `CC(C)C[C@@H]1NC(=O)[C@H](C)NC(=O)CNC(=O)[C@H](CC(C)C)NC(=O)[C@H](Cc2cnc[nH]2)NC(=O)[C@H](Cc2c[nH]c3ccccc23)NC(=O)[C@H](C)NC(=O)[C@@H]2CSSC[C@H](NC(=O)[C@H](Cc3c[nH]c4ccccc34)NC(=O)[C@H](C(C)C)NC1=O)C(=O)N[C@@H]([C@@H](C)O)C(=O)N1CCC[C@@H]1C(=O)N1C[C@@H](N)C[C@H]1C(=O)N[C@@H](CC(=O)O)C(=O)N2` [Intermediate 17] (cyclo(ALVWCT[dP][Pro(4S-NH2)]DCAWHLG); disulfide 5-10), the Kd on IgG (setting [1]) is < 0.1 µM; at IgG (SPR, read-out: IgG KD), < 0.1 µM.

In the case of `C#CCCCC(=O)NCCOCCC(=O)N[C@H]1C[C@H]2C(=O)N[C@@H](CC(=O)O)C(=O)N[C@H]3CSSC[C@H](NC(=O)[C@H](Cc4c[nH]c5ccccc45)NC(=O)[C@H](C(C)C)NC(=O)[C@H](CC(C)C)NC(=O)[C@H](CCC(=O)O)NC(=O)CNC(=O)[C@H](CC(C)C)NC(=O)[C@H](Cc4cnc[nH]4)NC(=O)[C@H](Cc4c[nH]c5ccccc45)NC(=O)[C@H](C)NC3=O)C(=O)N[C@@H]([C@@H](C)O)C(=O)N3CCC[C@@H]3C(=O)N2C1` [Intermediate 7], the Kd at IgG (setting [1]) is < 0.1 µM.

As to `CNC(=O)CC[C@@H]1NC(=O)CNC(=O)[C@H](CC(C)C)NC(=O)[C@H](Cc2cnc[nH]2)NC(=O)[C@H](Cc2c[nH]c3ccccc23)NC(=O)[C@H](C)NC(=O)[C@@H]2CSSC[C@H](NC(=O)[C@H](Cc3c[nH]c4ccccc34)NC(=O)[C@H](C(C)C)NC(=O)[C@H](CC(C)C)NC1=O)C(=O)N[C@@H]([C@@H](C)O)C(=O)N1CCC[C@@H]1C(=O)N1C[C@@H](N)C[C@H]1C(=O)N[C@@H](CC(=O)O)C(=O)N2` [Intermediate 22], the Kd at IgG (setting [1]) was < 0.1 µM; on IgG (SPR, read-out: IgG KD), < 0.1 µM.

As for `C#CCCCC(=O)NCCOCCOCCOCCC(=O)N[C@H]1C[C@H]2C(=O)N[C@@H](CC(=O)O)C(=O)N[C@H]3CSSC[C@H](NC(=O)[C@H](Cc4c[nH]c5ccccc45)NC(=O)[C@H](C(C)C)NC(=O)[C@H](CC(C)C)NC(=O)[C@H](CCC(=O)O)NC(=O)CNC(=O)[C@H](CC(C)C)NC(=O)[C@H](Cc4cnc[nH]4)NC(=O)[C@H](Cc4c[nH]c5ccccc45)NC(=O)[C@H](C)NC3=O)C(=O)N[C@@H]([C@@H](C)O)C(=O)N3CCC[C@@H]3C(=O)N2C1` [Intermediate 9], at IgG (setting [1]), the Kd was < 0.1 µM.

In the case of `C#CCCCC(=O)NCCOCCOCCOCCOCCC(=O)N[C@H]1C[C@H]2C(=O)N[C@@H](CC(=O)O)C(=O)N[C@H]3CSSC[C@H](NC(=O)[C@H](Cc4c[nH]c5ccccc45)NC(=O)[C@H](C(C)C)NC(=O)[C@H](CC(C)C)NC(=O)[C@H](CCC(=O)O)NC(=O)CNC(=O)[C@H](CC(C)C)NC(=O)[C@H](Cc4cnc[nH]4)NC(=O)[C@H](Cc4c[nH]c5ccccc45)NC(=O)[C@H](C)NC3=O)C(=O)N[C@@H]([C@@H](C)O)C(=O)N3CCC[C@@H]3C(=O)N2C1` [Intermediate 4], the Kd on IgG (setting [1]) was < 0.1 µM; on IgG (SPR, read-out: IgG KD), < 0.1 µM.

For the molecule `CC(C)C[C@@H]1NC(=O)[C@H](Cc2cnc[nH]2)NC(=O)[C@H](Cc2c[nH]c3ccccc23)NC(=O)[C@H](C)NC(=O)[C@@H]2CSSC[C@H](NC(=O)[C@H](Cc3c[nH]c4ccc(Cl)cc34)NC(=O)[C@H](C(C)C)NC(=O)[C@H](CC(C)C)NC(=O)[C@H](CCC(=O)O)NC(=O)CNC1=O)C(=O)N[C@@H]([C@@H](C)O)C(=O)N1CCC[C@@H]1C(=O)N1C[C@@H](N)C[C@H]1C(=O)N[C@@H](CC(=O)O)C(=O)N2` [Intermediate 29], the Kd is < 0.1 µM on IgG (setting [1]) and < 0.1 µM on IgG (SPR, read-out: IgG KD).

With `CC(C)C[C@@H]1NC(=O)[C@H](Cc2cnc[nH]2)NC(=O)[C@H](Cc2c[nH]c3ccccc23)NC(=O)[C@H](C)NC(=O)[C@@H]2CSSC[C@H](NC(=O)[C@H](Cc3c[nH]c4ccccc34)NC(=O)[C@H](C(C)C)NC(=O)[C@H](CC(C)C)NC(=O)[C@H](CCC(=O)O)NC(=O)CNC1=O)C(=O)N[C@@H]([C@@H](C)O)C(=O)N1CCC[C@@H]1C(=O)N1C[C@H](N)C[C@H]1C(=O)N[C@@H](CC(=O)O)C(=O)N2` [Intermediate 30], on IgG (SPR, read-out: IgG KD), the Kd is < 0.1 µM.

Consider `CC(C)C[C@@H]1NC(=O)[C@H](C)NC(=O)CNC(=O)[C@H](CC(C)C)NC(=O)[C@H](Cc2cnc[nH]2)NC(=O)[C@H](Cc2c[nH]c3ccccc23)NC(=O)[C@H](C)NC(=O)[C@@H]2CSSC[C@H](NC(=O)[C@H](Cc3c[nH]c4ccccc34)NC(=O)[C@H](C(C)C)NC1=O)C(=O)N[C@@H]([C@@H](C)O)C(=O)N1CCC[C@@H]1C(=O)N1C[C@@H](N)C[C@H]1C(=O)N[C@@H](CC(N)=O)C(=O)N2` [Intermediate 28] (cyclo(ALVWCT[dP][Pro(4S-NH2)]NCAWHLG); disulfide 5-10), for which the Kd is < 0.1 µM on IgG (setting [1]) and < 0.1 µM on IgG (SPR, read-out: IgG KD).
